According to publication PMC10671431, “New Derivatives of N-Hydroxybutanamide: Preparation, MMP Inhibition, Cytotoxicity, and Antitumor Activity” (International Journal of Molecular Sciences, 2023):
Entries after “also recorded” stand apart in the source; their conditions may differ.

Columns and labels:
U-251 MG = experiment: Cytotoxicity, MTT test; type: cell-based; details: Homo sapiens, 72 h of exposure
Experimental: (§1) Cell culture. A-172 (human glioblastoma cells), HepG2 (human hepatocellular carcinoma cells), M-HeLa (human cervical adenocarcinoma cells, M subclone), Vero (African green monkey kidney epithelial cells), and FetMSC (human embryonic mesenchymal stem cells) were purchased from the Russian Collection of Cell Cultures of Vertebrates (Institute of Cytology RAS, St. Petersburg, Russia). The U-251 MG cell line (human glioblastoma-astrocytoma) was purchased from the European Collection of Authenticated Cell Cultures (Salisbury, UK). All cells were grown at 37 °C in an atmosphere of 5% CO2. A-172 and Vero cells were cultured in DMEM medium (PanEco, Moscow, Russia). HepG2, HeLa, and U-251 MG cells were cultured in EMEM medium (PanEco). FetMSC cells were cultured in F12/DMEM medium (PanEco). All incubation media were supplemented with 10% fetal calf serum (BioWest, Nuaillé, France), 50 U/mL penicillin, and […] streptomycin (PanEco). Additionally, media for HeLa, HepG2, and U-251 MG cells were supplemented with 2 mM glutamine (PanEco) and 1% essential amino acids (PanEco), media for A-172 and Vero cells were supplemented with 4 mM glutamine, and the medium for FetMSC cells was supplemented with 3 mM glutamine. The medium for U-251 MG cells was additionally supplemented with 1 mM sodium pyruvate (PanEco).
(§2) Cytotoxicity studies. The cytotoxicity of the compounds was assessed using the MTT test. Cells were seeded into 96-well plates at varying concentrations of 5 × 10^4 cells/mL (A-172, Vero and HeLa), 7 × 10^4 cells/mL (HepG2 and U-251 MG), and 10 × 10^4 cells/mL (FetMSC). The studied compounds were added to the incubation medium 24 h after seeding at concentrations ranging from 7.8 μM to 500 μM. All compounds were dissolved in DMSO and diluted with the incubation medium to their final concentrations just before use. The incubation medium in wells was aspirated and replaced with medium containing the studied compounds. The final concentration of DMSO in all samples was 0.1%. Control samples were treated with 0.1% DMSO. After 72 h of exposure, 3-(4,5-dimethylthiazol-2-yl)-2,5-diphenyl-2H-tetrazolium bromide (MTT) (Dia-M, Moscow, Russia) was added to the incubation medium at a concentration of 0.5 mg/mL. The resulting MTT-formazan crystals were dissolved in DMSO. The optical density was measured at 570 nm with a background wavelength of 620 nm using a Spark 10M plate reader. IC50 values were determined using a median effect analysis from the dose–effect relationships.

BDF1 mice = experiment: Acute toxicity in vivo
Experimental: Acute toxicity. Experiments involving animals were conducted at the Unique Scientific Unit “Nursery and Vivarium of the FRC PCP MC RAS” in accordance with the rules established by the Commission on Bioethics of the FRC PCP MC RAS (protocol No. 7/22 dated 20 June 2022) and the European Convention for the Protection of Vertebrate Animals for experimental and scientific purposes. Clinically healthy BDF1 hybrid males weighing 20–22 g were utilized. The mice were housed in a conventional vivarium with a 12 h light regime and provided with free access to water and food. Each experimental group consisted of six animals. Compound 4 was dissolved in DMSO and then diluted with 0.9% NaCl to reduce the DMSO concentration to 10%. The solution was administered intraperitoneally at single doses ranging from 200 mg/kg to 1000 mg/kg. The control group received 10% DMSO in 0.9% NaCl intraperitoneally. The animals were monitored daily for 14 days, with attention given to their overall condition, activity, and appetite. At the end of the experiment, all animals were euthanized by inhalation of ether, followed by a pathoanatomical autopsy.

Vero = experiment: Cytotoxicity, MTT test; type: cell-based, African green monkey; details: Chlorocebus sabaeus, Vero, 72 h of exposure
Experimental: as §1, §2

[1] = Cytotoxicity, MTT test, statements on all cell lines studied; type: cell-based; details: human, African green monkey, 72 h of exposure, summary over cell lines, read-out: cytotoxicity IC50, cells in general
Experimental: as §1, §2

B16 melanoma = experiment: Antitumor activity in vivo, tumor growth; design: species or system mouse; details: BDF1 mice, i.p., CP 100 mg/kg days 2, 7, cPt 4 mg/kg days 2–9, 4 300 mg/kg days 2–9
Experimental: Antitumor activity in vivo. The B16 mouse melanoma was used as a tumor model. The B16 melanoma tumor strain was induced in male BDF1 mice by subcutaneous inoculation of 0.2–0.5 mL of a suspension of tumor tissue in medium 199 at intervals of 12–16 days. For the experiments, BDF1 mice were inoculated with 0.3 mL of a suspension of tumor tissue diluted in a 0.9% NaCl solution at a ratio of 1:5 subcutaneously on the right side.
Compound 4 was dissolved in a 0.9% NaCl solution with 1% DMSO. […] Control animals were injected intraperitoneally with 1% DMSO in saline (0.9% NaCl) in the same volumes as the test compounds.
Tumor growth was monitored on days 0, 6, 8, 10, 13, 15, 17, and 20 by measuring the tumor size with a digital caliper. The mean tumor diameter was calculated using the formula:D = 3√a × b × c,(2) where a, b, and c are mutually perpendicular tumor diameters.

HeLa = experiment: Cytotoxicity, MTT test; type: cell-based, human; details: Homo sapiens, HeLa, 72 h of exposure
Experimental: as §1, §2

HepG2 = experiment: Cytotoxicity, MTT test; type: cell-based, human; details: Homo sapiens, HepG2, 72 h of exposure
Experimental: as §1, §2

A-172 = experiment: Cytotoxicity, MTT test; type: cell-based, human; details: Homo sapiens, A 172, 72 h of exposure
Experimental: as §1, §2

FetMSC = experiment: Cytotoxicity, MTT test; type: cell-based, human
Experimental: as §1, §2

## O=C(CCC(=O)Nc1ccc(I)cc1)NO [Compound 4, N^1-hydroxy-N^4-(4-iodophenyl)butanediamide]
U-251 MG
  IC50: 401 ± 21.1 µM
BDF1 mice; intraperitoneally, doses up to 1000 mg/kg, classification of [48]
  toxicity classification: slightly toxic
BDF1 mice; single i.p. dose 300 mg/kg or lower, 300 mg/kg
  body weight change: stable increase in body weight; also recorded: did not impact weight gain
BDF1 mice; single i.p. dose 400 mg/kg
  body weight change: slower weight gain
BDF1 mice; single i.p. dose 1000 mg/kg, within 7 days, partial recovery on day 14
  body weight change: slight decrease in body weight
BDF1 mice; single i.p. doses 600 mg/kg and 800 mg/kg, entire observation period
  body weight change: No significant changes in body weight
Vero
  IC50: > 500 µM
[1]
  IC50 at 72 h: > 100 µM
B16 melanoma
  Tumor Growth Inhibition, % Day 10: 34.5%
  Tumor Growth Inhibition, % Day 13: 61.5%
  Tumor Growth Inhibition, % Day 15: 50.4%
  Tumor Growth Inhibition, % Day 17: 44.6%
  Tumor Growth Inhibition, % Day 20: 42.3%
HeLa
  IC50: 297 ± 15.7 µM
HepG2
  IC50: 488 ± 23.9 µM
A-172
  IC50: 418 ± 17.4 µM
FetMSC; Homo sapiens, 72 h of exposure, MTT
  IC50: > 500 µM
FetMSC; only at the highest concentration
  toxicity to FetMSC cells: some toxicity
